1 molecule from patent US20240398768A1, “METHODS OF TREATING SOLID TUMOR USING HETEROAROMATIC MACROCYCLIC ETHER COMPOUNDS” (Nuvalent, Inc., priority 2021, published 2024) can be followed below.

The experiment concerns NIH3T3 cells expressing ROS1 fusions with G2032R. As to the kind of experiment: Anchorage-independent colony formation assay. Type of experiment: cell-based. Conditions: at 100 nM. The procedure: Each inhibitor was paired with its own DMSO condition to serve as an accurate control. NIH3T3 cells expressing CD74-ROS1 or EZR-ROS1 wild-type or mutant fusions were plated in 0.4% agarose in complete medium at a density of 2,000 cells per 0.5 mL of agarose with DMSO or inhibitor at identical concentration to the bottom layer. Plates were incubated for 4 weeks, and each well was fed 3× per week with 75 μL of complete medium with or without inhibitor to match each plated condition to prevent drying of the agarose. Plates were read after 3 and 4 weeks using a GelCount™ (Oxford Optronix). Colony counts were averaged by condition and normalized to the colony counts from paired DMSO conditions. Data analysis and visualization was performed using Microsoft Excel and GraphPad Prism.

Regarding `CN1CCN(c2ccc(C(=O)Nc3n[nH]c4ccc(Cc5cc(F)cc(F)c5)cc34)c(NC3CCOCC3)c2)CC1` [Entrectinib, reference compound], the “inhibition of colony formation” value is given as “weaker effects”.
